We go through 3 compounds from BindingDB's records for patent US10370339 (Bayer Pharma Aktiengesellschaft, 2019).

The term IC50 denotes the concentration that gives 50% inhibition. Higher therefore signals a need for much substance.

Sequence of Isocitrate dehydrogenase [NADP] cytoplasmic [R132H] (O75874 2-414 R132H limits assumed): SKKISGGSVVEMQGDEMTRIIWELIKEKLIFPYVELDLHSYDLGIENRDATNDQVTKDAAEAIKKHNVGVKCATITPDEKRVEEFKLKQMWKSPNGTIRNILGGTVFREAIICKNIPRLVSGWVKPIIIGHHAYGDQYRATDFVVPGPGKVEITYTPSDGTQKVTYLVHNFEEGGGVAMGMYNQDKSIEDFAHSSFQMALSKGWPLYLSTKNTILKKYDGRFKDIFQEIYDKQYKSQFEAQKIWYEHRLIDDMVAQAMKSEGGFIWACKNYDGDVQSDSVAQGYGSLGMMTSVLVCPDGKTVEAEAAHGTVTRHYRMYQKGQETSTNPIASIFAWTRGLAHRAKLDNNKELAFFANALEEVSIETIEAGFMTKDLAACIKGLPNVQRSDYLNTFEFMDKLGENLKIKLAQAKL

The assay has as its target Isocitrate dehydrogenase [NADP] cytoplasmic [R132H] (Homo sapiens, UniProt O75874, R132H). Briefly: Biological Assay. As to the method:
Mutant IDH1 R132H Biochemical Assay mIDH1 catalyzes the NADPH-dependent reduction of alpha-ketoglutarate (a-KG) to (2R)-2-hydroxyglutarate (2-HG). NADPH consumption was measured by luminescent readout.The biochemical reactions were performed at 32° C. in 384-well plates using a reaction volume of 41 μL and the following assay buffer conditions: 50 mM Tris pH 7.5, 100 mM NaCl, 20 mM MgCl2, 0.05% BSA, 0.01% Brij, 1 μM NADPH, and 250 μM α-KG. The IDH1 R132H enzyme was used in a final concentration of 1.5 nM. Test compounds were used in a concentration range between 0.002 and 10 μM. The final DMSO concentration was 2.4%.The reaction was incubated for 30 minutes, then 40 μL of detection mix (0.75 μg/ml Luciferase, 0.02 U/ml Oxidoreductase, 4 μg/mL FMN, 2 μL/ml decanal/ethanol, 50 mM Tris pH 7.5, 0.5% Glycerin, 0.01% Tween-20, 0.05% BSA) was added. Luminescence was measured on a luminescent reader (10 seconds measuring time, 1 second integration period, 30% sensitivity). The decrease in luminescence is proportional to mIDH1 activity. IC50 values are determined by interpolation from plots of relative luminescence versus inhibitor concentration.
On to `COc1cc2c(cc1CCC(=O)O)nc(Nc1ccc(C(C)C)cc1)n2[C@@H]1C[C@H](C)CC[C@H]1C(C)C` [US10370339, Example 2-48], for which the midpoint of inhibition, the IC50, lay at 0.011 µM.

For `CC(C)[C@@H]1CC[C@@H](C)C[C@H]1n1c(Nc2ccc(OC(F)(F)F)cc2)nc2cc(CC(=O)O)ccc21` [US10370339, Example 2-31], half-maximal inhibition (IC50) required 0.014 µM. The IC50 values of the last two compounds are within 1.5-fold of each other.

For `COc1cc2c(cc1C(=O)O)nc(Nc1ccc(OC(C)C)cc1)n2[C@@H]1C[C@H](C)CC[C@H]1C(C)C` [US10370339, Example 2-30], half-maximal inhibition (IC50) required 0.015 µM. The IC50 values of the last two compounds are within 1.5-fold of each other.
